{"source": "patent US20060211698A1", "about": "“Bicyclic heteroaryl derivatives for treating viruses” (Genelabs, Inc., priority 2005, published 2006)", "target": "T1, HCV-NS5b (Hepatitis C virus genotype 1b, UniProt Q9WMX2)", "T1 construct": "The cloned fragment was missing the C terminus 21 amino acid residues; (His)6 (C); made in house; host or cells: XL-1 cells (E. coli)", "test": "HCV-NS5b Enzyme Assay", "assay_type": "biochemical", "conditions": "1 μM test compound; incorporation of [3H]-UTP, 37° C., 2 hours", "method_in_brief": "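The NS5B construct lacks its C-terminal 21 residues, carries a C-terminal His6 tag and was expressed in E. coli. [^3H]-UTP incorporation on a biotinylated HCV heteropolymeric template (10 ng/μL) with 10 μM each NTP, pH 7.5, 5 mM MgCl2 and 5% DMSO ran 2 h at 37° C and was read by SPA scintillation. IC50s came from 10-point 2-fold series starting at 50 or 2 μM.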", "data": [{"smiles": "COc1ccccc1-c1ccc(-c2c(C3CCCCC3)c3ccc(C(=O)O)cc3n2CC(=O)N2CCOCC2)cc1", "note": "[Compound 311, 3-Cyclohexyl-2-(2′-methoxy-biphenyl-4-yl)-1-(2-morpholin-4-yl-2-oxo-ethyl)-1H-indole-6-carboxylic acid]", "values": [{"measurement": "inhibition at 1 µM", "value": 102, "unit": "%"}]}, {"smiles": "O=C(O)c1ccc2c(C3CCCCC3)c(-c3ccc(-c4ccc5ccccc5n4)cc3)n(CC(=O)N3CCOCC3)c2c1", "note": "[Compound 326, 3-Cyclohexyl-1-(2-morpholin-4-yl-2-oxo-ethyl)-2-(4-quinolin-2-yl-phenyl)-1H-indole-6-carboxylic acid]", "values": [{"measurement": "inhibition at 1 µM", "value": 99.8, "unit": "%"}]}, {"smiles": "O=C(O)c1ccc2c(C3CCCCC3)c(-c3ccc(-c4ccccc4F)cc3)n(CC(=O)N3CCOCC3)c2c1", "note": "[Compound 302, 3-Cyclohexyl-2-(2′-fluoro-biphenyl-4-yl)-1-(2-morpholin-4-yl-2-oxo-ethyl)-1H-indole-6-carboxylic acid]", "values": [{"measurement": "inhibition at 1 µM", "value": 99.3, "unit": "%"}]}, {"smiles": "O=C(O)c1ccc2c(C3CCCCC3)c(-c3ccc4nc(-c5ccc(Cl)s5)ccc4c3)n(CC(=O)N3CCOCC3)c2c1", "note": "[Compound 225, 1-[N-morpholinocarbonylmethyl]-2-[2-(5-chlorothien-2-yl)quinolin-6-yl]-3-cyclohexyl-1H-indole-6-carboxylic acid]", "values": [{"measurement": "% inhibition @ 1 μM", "value": 98.0, "unit": "%"}]}, {"smiles": "O=C(O)c1ccc2c(C3CCCCC3)c(-c3ccc4nc(-c5cccs5)ccc4c3)n(CC(=O)N3CCOCC3)c2c1", "note": "[Compound 224, 1-[N-morpholinocarbonylmethyl]-2-[2-thien-2-ylquinolin-6-yl]-3-cyclohexyl-1H-indole-6-carboxylic acid]", "values": [{"measurement": "% inhibition @ 1 μM", "value": 98.2, "unit": "%"}]}, {"smiles": "COC(=O)c1ccc2c(C3CCCCC3)c(-c3ccc4nc(-c5cc(OC)ccc5-c5ccc(Cl)cc5)ccc4c3)n(CC(=O)O)c2c1", "note": "[Compound 201, 1-carboxymethyl-2-[2-(4′-chloro-4-methoxy-biphenyl-2-yl)-quinolin-6-yl]-3-cyclohexyl-1H-indole-6-carboxylic acid methyl ester]", "values": [{"measurement": "inhibition at 1 µM", "value": 77.7, "unit": "%"}]}, {"smiles": "COc1ccccc1-c1ccc2cc(-c3c(C4CCCCC4)c4ccc(C(=O)O)cc4n3CC(=O)N3CCOCC3)ccc2n1", "note": "[Compound 233, 3-Cyclohexyl-2-[2-(2-methoxy-phenyl)-quinolin-6-yl]-1-(2-morpholin-4-yl-2-oxo-ethyl)-1H-indole-6-carboxylic acid]", "values": [{"measurement": "inhibition at 1 µM", "value": 95.7, "unit": "%"}]}, {"smiles": "O=C(O)c1ccc2c(C3CCCCC3)c(-c3ccc4ncc(-c5ccccc5)cc4c3)n(CC(=O)N3CCOCC3)c2c1", "note": "[Compound 327, 3-Cyclohexyl-1-(2-morpholin-4-yl-2-oxo-ethyl)-2-(3-phenyl-quinolin-6-yl)-1H-indole-6-carboxylic acid]", "values": [{"measurement": "inhibition at 1 µM", "value": 96.3, "unit": "%"}]}, {"smiles": "Cc1nc(C)c(-c2ccc3cc(-c4c(C5CCCCC5)c5ccc(-c6nnn[nH]6)cc5n4CC(=O)N4CCOCC4)ccc3n2)s1", "note": "[Compound 244, 2-[3-Cyclohexyl-2-[2-(2,4-dimethyl-thiazol-5-yl)-quinolin-6-yl]-6-(1H-tetrazol-5-yl)-indol-1-yl]-1-morpholin-4-yl-ethanone]", "values": [{"measurement": "inhibition at 1 µM", "value": 97.2, "unit": "%"}]}, {"smiles": "CCN(CC)C1CCN(C(=O)Cn2c(-c3ccc4nc(-c5sc(C)nc5C)ccc4c3)c(C3CCCCC3)c3ccc(C(=O)O)cc32)CC1", "note": "[Compound 275, 3-Cyclohexyl-1-[2-(4-diethylamino-piperidin-1-yl)-2-oxo-ethyl]-2-[2-(2,4-dimethyl-thiazol-5-yl)-quinolin-6-yl]-1H-indole-6-carboxylic acid]", "values": [{"measurement": "inhibition at 1 µM", "value": 98.9, "unit": "%"}]}, {"smiles": "Cc1ccc(-c2ccc(-c3c(C4CCCCC4)c4ccc(C(=O)O)cc4n3CC(=O)N3CCOCC3)cc2)s1", "note": "[Compound 316, 3-Cyclohexyl-2-[4-(5-methyl-thiophen-2-yl)-phenyl]-1-(2-morpholin-4-yl-2-oxo-ethyl)-1H-indole-6-carboxylic acid]", "values": [{"measurement": "inhibition at 1 µM", "value": 101, "unit": "%"}]}, {"smiles": "Cc1nc(C)c(-c2ccc3cc(-c4c(C5CCCCC5)c5ccc(C(=O)O)cc5n4CC(=O)N4CCCC4C)ccc3n2)s1", "note": "(stereo not drawn) [Compound 277, 3-Cyclohexyl-2-[2-(2,4-dimethyl-thiazol-5-yl)-quinolin-6-yl]-1-[2-(2-methyl-pyrrolidin-1-yl)-2-oxo-ethyl]-1H-indole-6-carboxylic acid]", "values": [{"measurement": "inhibition at 1 µM", "value": 96.3, "unit": "%"}]}]}
